Reference: PubChem BioAssay (NCI)
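These data come from cells grown in 96-well plates and exposed to compound for 48 hours at five concentrations. TGI: concentration producing complete growth inhibition.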

Experiments:
Experiment in all cases: DTP human tumour cell line panel, 48 h
[1] = tested on: ACHN renal
[2] = tested on: A549 NSCLC
[3] = tested on: CAKI-1 renal
[4] = tested on: TK-10 renal
[5] = tested on: SW-620 colon
[6] = tested on: SNB-19 CNS
[7] = tested on: UACC-257 melanoma
[8] = tested on: OVCAR-3 ovarian
[9] = tested on: M14 melanoma
[10] = tested on: NCI-H23 lung
[11] = tested on: HL-60(TB) leukemia
[12] = tested on: RPMI-8226 leukemia
[13] = tested on: SF-268 CNS
[14] = tested on: HCT-116 colon
[15] = tested on: SN12C renal
[16] = tested on: OVCAR-8 ovarian
[17] = tested on: UO-31 renal
[18] = tested on: U251 CNS
[19] = tested on: SK-MEL-5 melanoma
[20] = tested on: KM12 colon
[21] = tested on: HOP-92 NSCLC
[22] = tested on: COLO 205 colon
[23] = tested on: HOP-62 NSCLC
[24] = tested on: HCC-2998 colon
[25] = tested on: MDA-MB-435
[26] = tested on: SK-MEL-2 melanoma
[27] = tested on: UACC-62 melanoma
[28] = tested on: HCT-15 colon
[29] = tested on: RXF 393 renal
[30] = tested on: SF-295 CNS
[31] = tested on: HT29 colon
[32] = tested on: LOX IMVI melanoma
[33] = tested on: EKVX NSCLC
[34] = tested on: SK-OV-3 ovarian
[35] = tested on: HS 578T breast
[36] = tested on: IGROV1 ovarian
[37] = tested on: NCI/ADR-RES ovarian
[38] = tested on: NCI-H522 lung
[39] = tested on: NCI-H226 lung
[40] = tested on: OVCAR-4 ovarian
[41] = tested on: SR leukemia
[42] = tested on: 786-0 renal
[43] = tested on: SK-MEL-28 melanoma
[44] = tested on: DU-145 prostate
[45] = tested on: MOLT-4 leukemia
[46] = tested on: MCF7 breast
[47] = tested on: SF-539 CNS
[48] = tested on: NCI-H460 lung
[49] = tested on: OVCAR-5 ovarian
[50] = tested on: BT-549 breast
[51] = tested on: MDA-N
[52] = tested on: SNB-75 CNS
[53] = tested on: T-47D breast
[54] = tested on: MDA-MB-231 breast
[55] = tested on: A498 renal
[56] = tested on: PC-3 prostate

For `OC1(c2ccccc2)c2ccccc2NC2=NCCN21` (stereo unspecified), the TGI [1] was > 100 µM, the TGI [2] was > 100 µM and the TGI [3] was > 100 µM. The TGI [4] was > 100 µM, the TGI [5] was > 100 µM and the TGI [6] was > 100 µM. For the same compound, the TGI [7] was > 100 µM, the TGI [8] was > 100 µM and the TGI [9] was > 100 µM. The TGI [10] was > 100 µM, the TGI [11] was > 100 µM and the TGI [12] was 45.8 µM. For the same compound, the TGI [13] was > 100 µM, the TGI [14] was > 100 µM and the TGI [15] was > 100 µM. The TGI [16] was > 100 µM, the TGI [17] was > 100 µM and the TGI [18] was > 100 µM. The TGI [19] was > 100 µM, the TGI [20] was > 100 µM and the TGI [21] was > 100 µM. For the same compound, the TGI [22] was 99.6 µM, the TGI [23] was > 100 µM and the TGI [24] was 31.3 µM. The TGI [25] was > 100 µM, the TGI [26] was > 100 µM and the TGI [27] was > 100 µM. For the same compound, the TGI [28] was > 100 µM, the TGI [29] was > 100 µM and the TGI [30] was > 100 µM. For the same compound, the TGI [31] was > 100 µM, the TGI [32] was > 100 µM and the TGI [33] was > 100 µM. For the same compound, the TGI [34] was > 100 µM, the TGI [35] was > 100 µM and the TGI [36] was > 100 µM. The TGI [37] was > 100 µM, the TGI [38] was > 100 µM and the TGI [39] was > 100 µM. The TGI [40] was > 100 µM, the TGI [41] was 45 µM and the TGI [42] was > 100 µM. The TGI [43] was > 100 µM, the TGI [44] was > 100 µM and the TGI [45] was 52.2 µM. The TGI [46] was > 100 µM, the TGI [47] was > 100 µM and the TGI [48] was > 100 µM. For the same compound, the TGI [49] was > 100 µM, the TGI [50] was > 100 µM and the TGI [51] was > 100 µM. The TGI [52] was > 100 µM, the TGI [53] was > 100 µM and the TGI [54] was > 100 µM. For the same compound, the TGI [55] was > 100 µM and the TGI [56] was > 100 µM.
